The target in experiment [1] is T1, KDM4C (JMJD2C) (Homo sapiens, UniProt Q9H3R0).
T1 sequence (Q9H3R0 1-349): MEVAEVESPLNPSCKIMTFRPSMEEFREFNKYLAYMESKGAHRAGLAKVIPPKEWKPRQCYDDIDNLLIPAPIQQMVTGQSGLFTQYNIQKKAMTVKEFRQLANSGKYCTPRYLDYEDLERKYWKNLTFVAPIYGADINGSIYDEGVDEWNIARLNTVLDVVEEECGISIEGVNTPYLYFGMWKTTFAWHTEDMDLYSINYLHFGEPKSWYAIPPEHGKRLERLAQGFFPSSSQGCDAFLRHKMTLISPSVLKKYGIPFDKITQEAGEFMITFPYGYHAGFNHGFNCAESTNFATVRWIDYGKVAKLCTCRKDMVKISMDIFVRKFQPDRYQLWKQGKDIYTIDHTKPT
Briefly: Histone lysine demethylase AlphaLISA assay, KDM4C. It is filed as biochemical. The conditions noted are these: read-out: KDM4C HDME Inhibition IC50. An outline of the steps: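 AlphaLISA demethylation readout: enzyme preincubated 10 min, then 10 min with compounds in 3% DMSO buffer, before biotinylated methyl-lysine histone peptide substrate with 25 μM L-Asc and 10 μM α-KG, room temperature. Acceptor beads then streptavidin donor beads added, dark incubation, plates read.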

The target in experiment [2] is T2, KDM5B (Homo sapiens, UniProt Q9UGL1).
T2 construct: (a.a. 1-752); host or cells: U2OS
T2 sequence (Q9UGL1 1-752): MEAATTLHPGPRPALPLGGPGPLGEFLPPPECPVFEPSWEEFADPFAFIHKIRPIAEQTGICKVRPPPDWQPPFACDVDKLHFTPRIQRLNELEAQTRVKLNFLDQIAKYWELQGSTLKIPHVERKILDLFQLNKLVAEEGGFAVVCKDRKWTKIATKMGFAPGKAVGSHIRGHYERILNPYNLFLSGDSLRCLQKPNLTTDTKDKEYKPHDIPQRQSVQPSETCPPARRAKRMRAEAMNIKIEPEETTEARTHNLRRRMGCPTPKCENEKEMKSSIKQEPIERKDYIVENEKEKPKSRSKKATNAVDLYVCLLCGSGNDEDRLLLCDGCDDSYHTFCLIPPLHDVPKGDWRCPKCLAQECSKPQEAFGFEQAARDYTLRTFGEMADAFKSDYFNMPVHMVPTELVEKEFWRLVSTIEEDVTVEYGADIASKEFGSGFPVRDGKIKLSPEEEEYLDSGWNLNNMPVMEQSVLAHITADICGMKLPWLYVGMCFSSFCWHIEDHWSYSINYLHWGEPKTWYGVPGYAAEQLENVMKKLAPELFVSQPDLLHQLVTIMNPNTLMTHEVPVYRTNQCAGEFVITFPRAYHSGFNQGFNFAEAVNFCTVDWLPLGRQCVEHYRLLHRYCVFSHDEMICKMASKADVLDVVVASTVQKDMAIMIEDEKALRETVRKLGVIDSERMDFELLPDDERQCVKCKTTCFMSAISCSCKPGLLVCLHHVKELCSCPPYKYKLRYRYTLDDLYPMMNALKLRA
Briefly: Histone lysine demethylase immunofluorescence assay, U2OS cells transfected with KDM5B. It counts as cell-based. Particulars: U2OS cells transfected with pCMVHA KDM5B; mark detected H3K4me2; 20 hours. The procedure, abridged:
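U2OS cells were transiently transfected with HA-tagged demethylase and reseeded after 6 h into compound-containing DMEM/10% FBS for 20 h. Cells were fixed in formaldehyde and immunostained for HA and the relevant histone methyl mark, then imaged. IC50 is based on mean mark staining in HA+ transfected cells.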

SMILES strings stand for the structures.

The term IC50 denotes the midpoint of a concentration-inhibition curve.

As to `CN(CC(=O)N1CCCCC1)Cc1cc(C=O)ccn1` [Compound 120, 2-({methyl[2-oxo-2-(piperidin-1-yl)ethyl]amino}-methyl)pyridine-4-carbaldehyde], the IC50 in experiment [1] and in experiment [2] was greater than 2500 nM each time.

Source of the values: patent US9650339B2, “Inhibitors of histone demethylases” (Gilead Sciences, Inc., priority 2013, dated 2017).
